Laboratory results: patent US20260008768A1, “UREA DERIVATIVES FOR INHIBITING NLRP3 AND USES THEREOF” (VENTUS THERAPEUTICS U.S., INC., priority 2023, published 2026)
pIC50: −log10 of the molar value.

Target: human NLRP3 (Homo sapiens, UniProt Q96P20)
Assay: Human PBMC NLRP3 Assay (LPS priming, ATP stimulation, cytokine measurement)
Assay type: cell-based
Design: host or cells: human PBMCs (A2); human whole blood from healthy volunteers (A3)
Details: for pIC50: human PBMC, LPS + ATP
Outline: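 Human PBMCs (5×10^4/well) primed with 100 ng/ml LPS for 4 h, then given compound for 30 min and stimulated with 5 mM ATP for 1 h at 37° C. Supernatant cytokines measured on the Mesoscale platform to give IC50. For TNFα selectivity, compound was added 30 min before LPS priming.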

Chain of human NLRP3 (Q96P20 whole entry): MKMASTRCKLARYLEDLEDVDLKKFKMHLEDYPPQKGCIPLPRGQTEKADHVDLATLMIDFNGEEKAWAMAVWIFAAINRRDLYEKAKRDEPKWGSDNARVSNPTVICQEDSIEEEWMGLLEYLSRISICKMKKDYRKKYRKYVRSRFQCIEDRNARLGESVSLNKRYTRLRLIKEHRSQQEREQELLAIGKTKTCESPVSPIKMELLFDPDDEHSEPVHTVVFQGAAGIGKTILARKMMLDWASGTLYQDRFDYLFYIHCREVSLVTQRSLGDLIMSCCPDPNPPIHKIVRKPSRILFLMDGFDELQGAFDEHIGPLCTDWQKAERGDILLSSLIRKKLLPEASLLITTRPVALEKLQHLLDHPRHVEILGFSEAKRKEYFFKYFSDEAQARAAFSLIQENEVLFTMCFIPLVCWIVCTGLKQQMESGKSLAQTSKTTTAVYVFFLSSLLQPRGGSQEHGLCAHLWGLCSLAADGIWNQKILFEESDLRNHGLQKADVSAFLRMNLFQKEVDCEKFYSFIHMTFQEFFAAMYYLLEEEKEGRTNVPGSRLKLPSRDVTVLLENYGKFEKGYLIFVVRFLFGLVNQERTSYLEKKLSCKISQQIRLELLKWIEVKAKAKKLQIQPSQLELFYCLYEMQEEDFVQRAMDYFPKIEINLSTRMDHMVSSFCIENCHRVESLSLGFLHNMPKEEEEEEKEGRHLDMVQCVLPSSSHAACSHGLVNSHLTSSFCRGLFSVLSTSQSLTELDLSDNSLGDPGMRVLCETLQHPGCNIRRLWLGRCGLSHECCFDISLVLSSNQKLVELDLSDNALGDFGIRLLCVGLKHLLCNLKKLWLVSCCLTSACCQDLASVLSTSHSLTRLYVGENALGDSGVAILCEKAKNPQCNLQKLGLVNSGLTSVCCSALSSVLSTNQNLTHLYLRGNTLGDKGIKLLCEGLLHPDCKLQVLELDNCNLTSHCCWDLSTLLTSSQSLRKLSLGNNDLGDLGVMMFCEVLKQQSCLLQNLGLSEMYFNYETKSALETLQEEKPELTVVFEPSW

C[C@@H]1CCN(c2nnn[nH]2)C[C@H](NC(=O)N(C)c2ccc(OC(F)F)cc2)C1 (single isomer, unassigned) [11A*]
pIC50 (Table B, activity class): > 8.00 | pIC50 (Table C): 8.38

C[C@@H]1CCN(c2nnn[nH]2)C[C@H](NC(=O)N(C)c2ccc(Cl)cc2)C1 (single isomer, unassigned) [4A*]
pIC50 (Table B, activity class): > 8.00 | pIC50 (Table C): 8.17 | fold improvement in potency (PBMC IC50) (relative to Comparative Example B1): > 700 fold

C[C@@H]1CCN(c2nnn[nH]2)C[C@H](NC(=O)N(C)c2ccc(OC(F)(F)F)cc2)C1 (single isomer, unassigned) [10A*]
pIC50 (Table B, activity class): > 8.00 | pIC50 (Table C): 8.04
